For assay [1], the target named is T1, D-3-phosphoglycerate dehydrogenase (Homo sapiens) (UniProt O43175).
T1 sequence (whole entry): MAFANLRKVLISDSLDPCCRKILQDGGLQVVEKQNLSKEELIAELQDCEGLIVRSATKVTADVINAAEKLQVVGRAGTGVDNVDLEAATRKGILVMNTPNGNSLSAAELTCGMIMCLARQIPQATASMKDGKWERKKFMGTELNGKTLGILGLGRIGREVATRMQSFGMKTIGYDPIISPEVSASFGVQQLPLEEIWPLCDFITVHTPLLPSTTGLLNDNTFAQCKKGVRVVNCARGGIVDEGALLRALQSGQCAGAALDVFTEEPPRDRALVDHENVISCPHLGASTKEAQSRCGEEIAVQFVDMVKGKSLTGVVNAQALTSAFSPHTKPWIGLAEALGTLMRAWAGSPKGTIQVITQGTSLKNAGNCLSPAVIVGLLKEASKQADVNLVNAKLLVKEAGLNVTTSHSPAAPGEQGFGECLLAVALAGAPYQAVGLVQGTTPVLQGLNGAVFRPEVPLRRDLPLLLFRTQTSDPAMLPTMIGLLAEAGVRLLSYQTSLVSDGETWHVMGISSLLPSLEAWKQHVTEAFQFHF
The assay can be described thus: Inhibition of N-terminal His6-tagged human liver PHGDH expressed in Escherichia coli Rosetta (DE3)pLysS at 57 uM using 3-phosphoglycerate as substrate after 20 mins in presence of NAD+ by resazurin fluorescence based PSAT1/diaphorase/PSPH coupled enzyme assay. A general note: Alamar Blue is a resazurin reagent that responds to reducing activity.

The target in assay [2] is T2, D-3-phosphoglycerate dehydrogenase (Homo sapiens, UniProt O43175).
T2 sequence (O43175 whole entry): T1 sequence (whole entry)

The inhibition is the relative decrease from the control value, in per cent. Consider `Cc1cc(C)nc(NC(=S)N2CCN(c3ccc(C(F)(F)F)cn3)CC2)c1`, for which the inhibition in assay [1] came out at 96%.

As a reminder, the IC50 is the concentration at which inhibition is half-maximal. Lower therefore signals inhibition by little substance. Turning to `Cc1cc(C)nc(NC(=S)N2CCN(Cc3ccc(C(F)(F)F)cc3)C(c3ccccc3)C2)c1` (stereo not drawn), in assay [2], the IC50 worked out at 31 µM. Besides, the inhibition in assay [1] was 111%.

On to `Cc1cc(C)nc(NC(=S)N2CCN(Cc3ccc(C(F)(F)F)cc3)C(CO)C2)c1` (stereo not drawn), for which, in assay [2], the IC50 was found to be 5.8 µM. Besides, the inhibition in assay [1] was 89%.

As for `Cc1ccc(CN2CCN(C(=S)Nc3cc(C)cc(C)n3)CC2)cc1`, in assay [2], the IC50 was 17 µM. For the same compound, the inhibition in assay [1] was found to be 93%.

`Cc1cc(C)nc(NC(=S)N2CCCC(NC(=O)c3cccc(C(F)(F)F)c3)C2)c1` (stereo not drawn) yielded an IC50 in assay [2] of 10 µM. In addition, the inhibition in assay [1] was 91%.

For `Cc1cc(C)nc(NC(=S)N2CCN(Cc3ccc(C(F)(F)F)cc3)C(C)C2)c1` (stereo not drawn), in assay [2], the half-maximal inhibitory concentration (IC50) was determined as 8.3 µM. In addition, the inhibition in assay [1] was 99%.

In turn, `Cc1cc(C)nc(NC(=S)N2CCCC(Nc3cccc(C(F)(F)F)c3)C2)c1` (stereo not drawn) came in with an IC50 in assay [2] of 7.2 µM. Besides, the inhibition in assay [1] came to 84%.

Regarding `Cc1ccnc(N(C)C(=S)N2CCN(c3cccc(C(F)(F)F)c3)CC2)c1`, the Imax in assay [1] was 38%.

In the case of `Cc1cc(C)nc(NC(=S)N2CCCN(Cc3ccc(C(F)(F)F)cc3)CC2)c1`, in assay [2], 7.3 µM corresponded to half-maximal inhibition (IC50). The inhibition in assay [1] was determined as 82%.

In assay [2], `Cc1cc(C)nc(NC(=S)N2CCN(Cc3ccccc3F)CC2)c1` had a half-inhibitory concentration (IC50) of 41 µM. The inhibition in assay [1] turned out to be 56%.

Regarding `Cc1cc(C)nc(NC(=S)N2CCN(Cc3ccccc3Cl)CC2)c1`, in assay [2], 20 µM corresponded to half-maximal inhibition (IC50). In assay [1], the inhibition amounted to 106%.

`Cc1cc(C)nc(NC(=S)N2CCC(NC(=O)c3ccc(C(F)(F)F)cc3)CC2)c1`: 10 µM corresponded to half-maximal inhibition in assay [2] (IC50). Also, the inhibition in assay [1] is 90%.

`Cc1cc(C)nc(NC(=S)N2CCN(Cc3ccc(Cl)cc3)CC2)c1` came in with an IC50 in assay [2] of 15 µM. The inhibition in assay [1] came to 97%.

For the compound `Cc1cc(C)nc(NC(=S)N2CCN(Cc3ccc(F)cc3)CC2)c1`, the IC50 in assay [2] was found to be 38 µM. Further, the inhibition in assay [1] was 86%.

For `COc1ccc(CN2CCN(C(=S)Nc3cc(C)cc(C)n3)CC2)cc1`, in assay [2], it took 26 µM to reach half-maximal inhibition (IC50). The inhibition in assay [1] was 87%.

In turn, `COC(=O)c1ccnc(NC(=S)N2CCN(c3cccc(C(F)(F)F)c3)CC2)c1` gave an IC50 in assay [2] of 13 µM. For the same compound, the inhibition in assay [1] turned out to be 73%.

Take `FC(F)(F)c1cccc(N2CCN(C(=S)Nc3cccnc3)CC2)c1`: in assay [2], the IC50 turned out to be 8.9 µM. For the same compound, in assay [1], the inhibition worked out at 67%.

`COc1ccc(N2CCN(C(=S)Nc3cc(C)cc(C)n3)CC2)cc1`: in assay [2], the IC50 was determined as 16 µM. Moreover, the inhibition in assay [1] was determined as 99%.

As to `Cc1ccnc(NC(=O)N2CCN(c3cccc(C(F)(F)F)c3)CC2)c1`, in assay [1], the Imax worked out at 16%.

Take `Cc1cccc(NC(=S)N2CCN(c3cccc(C(F)(F)F)c3)CC2)c1`: the Imax in assay [1] was 20%.

Take `Cc1cc(C)nc(NC(=S)N2CCC(Nc3cccc(C(F)(F)F)c3)CC2)c1`: the IC50 in assay [2] is 6.5 µM. Besides, the inhibition in assay [1] worked out at 90%.

Regarding `Cc1ccnc(NC(=S)N2CCN(c3cccc(C(F)(F)F)c3)CC2)n1`, half-maximal inhibition in assay [2] (IC50) required 37 µM. The inhibition in assay [1] was 111%.

Regarding `Cc1cc(C)nc(NC(=S)N2CCN(Cc3ccc(C(F)(F)F)cc3)CC2)c1`, in assay [1], the inhibition is 96%.

Regarding `Cc1ccnc(NC(=S)N2CCN(c3cccc(C(F)(F)F)c3)CC2)c1`, the inhibition in assay [1] was found to be 92%.

For the compound `Cc1cc(C)nc(NC(=S)N2CCN(Cc3cccnc3)CC2)c1`, the Imax in assay [1] worked out at 34%.

In the case of `Cc1cc(C)nc(NC(=S)N2C[C@@H](C)N(Cc3ccc(C(F)(F)F)cc3)[C@@H](C)C2)c1`, the Imax in assay [1] was found to be 16%.

Turning to `Cc1ccnc(C(=S)N2CCN(c3cccc(C(F)(F)F)c3)CC2)c1`, the Imax in assay [1] turned out to be 9%.

In the case of `COc1ccccc1CN1CCN(C(=S)Nc2cc(C)cc(C)n2)CC1`, the Imax in assay [1] amounted to 21%.

Take `Cc1ccnc(CC(=S)N2CCN(c3cccc(C(F)(F)F)c3)CC2)c1`: in assay [1], the Imax turned out to be 37%.

In the case of `Cc1ccnc(NC(=N)N2CCN(c3cccc(C(F)(F)F)c3)CC2)c1`, the Imax in assay [1] was found to be 2%.
